Results published in patent publication US7312240B2, “Conformationally constrained paclitaxel analogs and their use as anticancer and anti-Alzheimers agents” (Virginia Tech Intellectual Properties, Inc., priority 2004, dated 2007).

How the values were obtained:
[1] = tested on: paclitaxel resistant and epothilone A resistant cell lines; assay: Activity against paclitaxel resistant and epothilone A resistant cell lines; assay type: cell-based
PC-3 prostate cell line = assay: Cytotoxicity against PC3 prostate cancer cell line; conditions: PC3
[2] = tested on: A2780 ovarian cancer cell line; assay: Cytotoxicity against A2780 ovarian cancer cell line; conditions: A2780, relative to PTX
[3] = tested on: A2780 ovarian cancer cell line; conditions: meta-bridged analogs, earlier work (Org. Lett. 2001, 3, 2461); cited from earlier work

Compound	times better activity than paclitaxel [1] [times]	cytotoxicity against PC3 in words, compared with PTX/Taxol (PC-3 prostate cell line)	times more potent/active than PTX against A2780 [2]	potency as cytotoxins, fold less than Taxol/PTX [3]
CC(=O)O[C@H]1C(=O)[C@@]2(C)[C@@H]3[C@H](OC(=O)c4ccccc4)[C@]4(O)C[C@H](OC(=O)[C@H](O)[C@@H](NC(=O)c5ccccc5)c5ccccc5CCCC(=O)O[C@]35CO[C@@H]5C[C@@H]2O)C(C)=C1C4(C)C [Compound 16d]	100	slightly more cytotoxicity than PTX	about 10 times	–
CC(=O)O[C@H]1C(=O)[C@@]2(C)[C@@H]3[C@H](OC(=O)c4ccccc4)[C@]4(O)C[C@H](OC(=O)[C@H](O)[C@@H](NC(=O)c5ccccc5)c5ccccc5C/C=C\C(=O)O[C@]35CO[C@@H]5C[C@@H]2O)C(C)=C1C4(C)C [Compound 15d]	100	slightly more cytotoxicity than PTX	at least 20 times	–
CC(=O)O[C@H]1C(=O)[C@@]2(C)[C@@H]3[C@H](OC(=O)c4ccccc4)[C@]4(O)C[C@H](OC(=O)C(O)C(NC(=O)c5ccccc5)c5cccc(c5)OC/C=C\CCC(=O)O[C@]35CO[C@@H]5C[C@@H]2O)C(C)=C1C4(C)C (stereo partly shown) [Compound 16]	–	–	–	less than one-tenth the activity of Taxol
